Experimental data published in article PMC9561113, “[2]-Ladderanes as isosteres for meta-substituted aromatic rings and rigidified cyclohexanes” (Nature Communications, 2022).
In brackets after ≈: the same amount, converted by molar mass.

Key:
[1] = Microsomal clearance (rat liver microsomal intrinsic clearance); assay type: in vitro ADME; settings: rat liver microsomes, 37 °C, NADPH, 0-30 minutes
Excerpt: The metabolic and physicochemical properties of the [2]-ladderanes compared to aryl/cyclohexyl matched pairs were also studied (compare 35 with 36/37 and 38 with 39/40) (Fig. 5). These structures were chosen because they bear functional groups that are common in drug discovery, yet unlikely to pose any inherent risks. In addition, solubility, permeability, rat liver microsomal intrinsic clearance, and LogP were selected to be evaluated as these are common parameters modulated in drug discovery programs to improve the pharmacokinetic/pharmacodynamic and safety profiles of potential drug candidates.
The following procedure was adapted from the literature. 14 The experiment was performed in 96-well plate format with shaking incubation at 37 °C and 750 rpm. The compounds in 10 mM DMSO were diluted 1:1000 in 100 mM potassium phosphate (Kpi) buffer to 10 µM. 30 µL of the compound solution was added to 120 µL of pretreated microsomal protein for 150 µL enzyme-substrate mixture. Reactions were initiated by addition of 150 µL of cofactor solution (2 mM NADPH, 4 mM MgCl2 in 100 mM KPi). At specific reaction time points (0, 5, 15 and 30 minutes), reaction aliquots (25 µL) were removed and terminated by addition to acetonitrile (150 µL) containing mass spectrometry internal standard (0.4 µM glyburide). The samples were then centrifuged at 500g, and the supernatants analyzed by LC-MS/MS for quantitation of remaining target compound. The percentage of target compound remaining, relative to 0 minutes, was used to estimate in vitro elimination-rate constant (kmic). […]

[2] = Log P (Pion SiriusT3 instrument); assay type: physicochemical
Method: (§1) v/v heat deactivated FBS and 1% v/v penicillin-streptomycin (all from Gibco) and grown for 4 days at 37 °C in an atmosphere of 5% CO 2 and 95% relative humidity. Stock solutions of the compounds were prepared in dimethyl sulfoxide (DMSO) (10 mM), and each compound was dosed in triplicate at a final concentration of 10 μM in Hanks’ balanced salt solution (HBSS) at pH 7.4 containing 10 mM 4-(2-hydroxyethyl)-1-piperazineethanesulfonic acid (HEPES) and 0.02% w/v bovine serum albumin (BSA). A solution without the compounds and containing 5% BSA was added to the acceptor. Bafilomycin (100 nM) was added to both compartments. Cells were incubated with the compounds for 2 h at 37 °C, and flux was measured in the apical-to-basolateral direction. Aliquots from the apical, basal and compound dilution plate were sampled and diluted in 90% Methanol 10% Water with 0.1% Formic acid and 0.4 μ M glyburide as an analytical standard to precipitate the protein. The solutions as well as the calibration solutions were centrifuged for 30 min at 3000 rpm for protein precipitation. Drug concentrations in the donor and acceptor compartments were measured by liquid chromatography–mass spectrometry (LC-MS/MS).
The Log P was measured using a Pion SiriusT3 instrument.
To determine the stability of the bicyclo[2.2.0] system, the following experiments were performed:
Aqueous stability at two different pH:
SI-48 was first saponified to avoid the possibility of acid- or base-mediated hydrolysis:
Two solutions of pH = 2 and pH = 10 were prepared with 1M solutions of HCl and NaOH. Then, SI-49 was stirred in two separate solutions (1 mL of each of the aqueous solution and 0.80 mL of MeCN for each).
LC/MS for both durations. […]

[3] = High throughput equilibrium solubility (miniaturized shake flask); assay type: physicochemical; settings: phosphate buffer, aqueous buffer, thermodynamic from solid; pH 6.8 phosphate media, shaken 16 hours
Method: High Throughput Equilibriu m Solubility:
The following procedure was adapted from the literature.15 Equilibrium solubility was determined using a miniaturized shake flask approach as described in Zhou et al. Aliquots of 10 mM DMSO compound solution were dispensed in triplicate (2.5 µL/sample) in 96-well polypropylene plates using a Labcyte Echo 525 acoustic dispenser. The DMSO was removed using a GeneVac HT4X evaporator for 15 minutes, 35 °C and full vacuum. Media (pH 6.8 Di-Sodium Hydrogen Phosphate/Potassium Hydrogen Phosphate) was added to each well to achieve a target concentration of 1 mM. The plate was sealed and shaken for 16 hours, then centrifuged at 1000g for phase separation. An aliquot of supernatant was transferred to a new plate, centrifuged a second time at 100g, and then the final supernatant was further diluted for subsequent analysis. Quantification of solubility was performed using a Sound Analytics LS1 and Sciex 6500+ MS/MS and an 8-point calibration curve. […]

[4] = Permeability (MDCK), apparent permeability apical-to-basolateral; assay type: in vitro ADME; settings: dog, with bafilomycin 100 nM in both compartments, MDCK-KO cells, pH 7.4, 2 h, read-out: Papp A-Bx10^-6
Method: The following procedure was adapted from the literature.16 To determine the apparent permeability (Papp), MDCK knockout (MDCK-KO) cells were seeded on Transwell 96 -well plate inserts (Corning, Tewksbury, MA,) at a density of 1.5 × 10^5 cells/cm2 in high glucose DMEM with GlutaMAX containing 10% […]
as §1, with “(LC-MS/MS). […]” for “(LC-MS/MS).”

| SMILES | Rat Clint [1] [mL/min] | logP [2] | solubility at 16 h [3] [µM] | Papp at 2 h, 10 μM [4] [×10⁻⁶ cm/s] |
| --- | --- | --- | --- | --- |
| O=C(C1CCCC(CO)C1)N1CCCCC1 (stereo not drawn) [compound 37] | 21 | 1.45 | > 200 | 28 |
| O=C(O)[C@@H]1C[C@H]2C[C@H](C(=O)N3CCCCC3)[C@H]21 [compound 38] | < 10 | 0.98 | 180 (≈ 42.7 µg/mL) | 5 |
| O=C(c1cccc(CO)c1)N1CCCCC1 [compound 36] | < 10 | 0.41 | > 200 | 32 |
| O=C(C1CC2CC(CO)C21)N1CCCCC1 (stereo not drawn) [compound 35] | 15 | 0.74 | > 200 | 29 |
| O=C(O)C1CCCC(C(=O)N2CCCCC2)C1 (stereo not drawn) [compound 40] | < 10 | 0.95 | 200 (≈ 47.9 µg/mL) | 4 |
| O=C(O)c1cccc(C(=O)N2CCCCC2)c1 [compound 39] | < 10 | 1.15 | > 200 | 4 |
